Measured values as given in patent US11872200B2, “GABA agonists in the treatment of disorders associated with metabolic syndrome and GABA combinations in treatment or prophylaxis of type I diabetes” (The Regents of the University of California, priority 2010, dated 2024).

Experiments:
[1] = system: β-cells; assay: STZ oxidative-stress induced β-cell apoptosis, pancreas sections co-stained with TUNNEL and anti-insulin; format: in vivo, C57Bl/6 mice; details: for relative area of insulin+ cells to the total area of the islets: 48 hours after STZ (FIG. 10C); for STZ mediated oxidative-stress-induced apoptosis: 48 hours after STZ, N=4 mice/group (FIG. 10A)
Description: C57Bl/6 mice received a moderate dose of STZ and then given plain water (control), water+GABA, or water+baclofen (a GABAB-R agonist). 48 hours later their pancreas were removed and sections co-stained with TUNNEL and anti-insulin.
N=4 mice/group, at least 100 islets analyzed per group.

[2] = system: syngenic islet grafts in diabetic NOD mice; assay: Syngenic islet graft survival in diabetic NOD mice; format: in vivo; details: diabetic NOD mice treated 28 days, then NOD.scid islets under kidney capsule; 10 week observation period (FIG. 8)
Description: Mice were given insulin as needed. After 28 days the mice received NOD.scid islets under their kidney capsule and insulin treatment was discontinued. Data shown are individual mouse blood glucose levels post-transplantation (FIG. 8A-8D). […] Dashed line indicates blood glucose of 250 mgs/dL.

[3] = system: newly diabetic NOD mice; assay: Reversal of hyperglycemia in newly diabetic NOD mice; format: in vivo; details: GABA 6 mgs/ml in drinking water, GAD/alum 100 μg sc on day 1 and 14 (FIG. 9)
Description: Mice were considered diabetic after two blood glucose>250 mgs/dL. […] Data shown are blood glucose levels in individual mice given no treatment (FIG. 9A), GABA alone (6 mgs/ml in drinking water) (FIG. 9B), or GABA+GAD/alum (100 μg sc on day 1 and 14) (FIG. 9C).

[4] = system: HFD-fed mice; assay: GABA in drinking water of high fat diet (HFD) fed mice; format: in vivo
Description: Mice were fed high fat diet (HFD) or “western diet” causing them to gain weight, become obese, and develop glucose intolerance, insulin resistance, and metabolic syndrome. The mice were provided either normal water, or water that contained GABA (6 mg/ml). The weight, food intake, water intake, glucose tolerance, insulin sensitivity and blood glucose levels of the mice was monitored over 5 months.

[5] = system: Treg responses; assay: In vitro culture system with IL-2 and anti-CD3; format: cell-based; details: preliminary data; IL-2 and anti-CD3 in an in vitro culture system
Description: It is noted that the GABA treatment can both suppress autoimmune responses by working on GABA-A receptors on immune cells, and promote B-cell survival through their GABA-B receptors.

For `NCC(CC(=O)O)c1ccc(Cl)cc1` (racemic) [baclofen, (RS)-4-amino-3-(4-chlorophenyl)butanoic acid, reference compound], the “relative area of insulin+ cells to the total area of the islets” value [1] was “greater β-cell area, but this did not reach the level of statistical significance” and the “STZ mediated oxidative-stress-induced apoptosis” value ([1]; baclofen in water) was “significantly inhibits”.

“GAD/alum: glutamic acid decarboxylase (GAD) β-cell antigen vaccine given with alum adjuvant” was tested, and the “time until mice became diabetic again after receiving the graft” value [2] was “about 3 weeks” and the reversal of hyperglycemia [3] was “cannot reverse hyperglycemia”.

In the case of “insulin B-chain: β-cell antigen used as antigen-based therapy”, the reversal of hyperglycemia [3] is reported as “cannot reverse hyperglycemia”.

`NCCCC(=O)O` [GABA, 4-aminobutanoic acid] was tested, and the “time until mice became diabetic again after receiving the graft” value [2] was “about 3 weeks”, the reversal of hyperglycemia [3] was “prolongs a state of modest hyperglycemia for a short period, after which the mice progress to severe hyperglycemia” and the glucose tolerance ([4]; GABA 6 mg/ml in water (FIG. 3)) was “improved”. The insulin sensitivity ([4]; GABA 6 mg/ml in water (FIG. 4)) was “improved”, the “fasting blood glucose levels” value ([4]; GABA 6 mg/ml in water (FIG. 5)) was “reduced” and the “HFD-induced obesity (body weight)” value ([4]; GABA 6 mg/ml in water (FIG. 6)) was “mitigated”. The “infiltration of macrophages into white adipose tissue” value ([4]; GABA 6 mg/ml in water (FIG. 7, top panel)) was “inhibited”, the mass of adipocytes ([4]; GABA 6 mg/ml in water (FIG. 7 bottom panel)) was “significantly reduced” and the Treg responses [5] was “can promote Treg responses”. The “insulin-expressing cells per 100 islet cells” value ([1]; 48 hours after STZ (FIG. 10B)) was “preserving insulin-expressing β-cell s”, the “relative area of insulin+ cells to the total area of the islets” value [1] was “preserve the area of insulin producing β-cells” and the “STZ mediated oxidative-stress-induced apoptosis” value ([1]; GABA 2 mg/ml in water) was “significantly inhibits”. The “STZ mediated oxidative-stress-induced apoptosis” value ([1]; GABA 6 mgs/ml in water) was “significantly inhibits”.
